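Five compound concentrations were applied to cells in 96-well plates for 48 hours; endpoints were derived by simple linear interpolation of the resulting dose-response curve. Here, GI50 denotes the concentration required for 50% inhibition of growth. TGI marks complete inhibition of growth.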
How the values were obtained:
Assay in all cases: growth of human tumour cells (NCI), 48 h
[1] = tested on: 786-0 renal
[2] = tested on: A498 renal
[3] = tested on: A549 NSCLC
[4] = tested on: ACHN renal
[5] = tested on: BT-549 breast
[6] = tested on: CAKI-1 renal
[7] = tested on: CCRF-CEM leukemia
[8] = tested on: COLO 205 colon
[9] = tested on: DU-145 prostate
[10] = tested on: EKVX NSCLC
[11] = tested on: HCC-2998 colon
[12] = tested on: HCT-116 colon
[13] = tested on: HCT-15 colon
[14] = tested on: HOP-62 NSCLC
[15] = tested on: HOP-92 NSCLC
[16] = tested on: HS 578T breast
[17] = tested on: HT29 colon
[18] = tested on: IGROV1 ovarian
[19] = tested on: K-562 leukemia
[20] = tested on: KM12 colon
[21] = tested on: LOX IMVI melanoma
[22] = tested on: M14 melanoma
[23] = tested on: MALME-3M melanoma
[24] = tested on: MCF7 breast
[25] = tested on: MDA-MB-231 breast
[26] = tested on: MOLT-4 leukemia
[27] = tested on: NCI-H226 lung
[28] = tested on: NCI-H23 lung
[29] = tested on: NCI-H460 lung
[30] = tested on: NCI-H522 lung
[31] = tested on: NCI/ADR-RES ovarian
[32] = tested on: OVCAR-3 ovarian
[33] = tested on: OVCAR-4 ovarian
[34] = tested on: OVCAR-5 ovarian
[35] = tested on: OVCAR-8 ovarian
[36] = tested on: PC-3 prostate
[37] = tested on: RPMI-8226 leukemia
[38] = tested on: RXF 393 renal
[39] = tested on: SF-268 CNS
[40] = tested on: SF-295 CNS
[41] = tested on: SF-539 CNS
[42] = tested on: SK-MEL-2 melanoma
[43] = tested on: SK-MEL-28 melanoma
[44] = tested on: SK-MEL-5 melanoma
[45] = tested on: SK-OV-3 ovarian
[46] = tested on: SN12C renal
[47] = tested on: SNB-19 CNS
[48] = tested on: SNB-75 CNS
[49] = tested on: SR leukemia
[50] = tested on: SW-620 colon
[51] = tested on: T-47D breast
[52] = tested on: TK-10 renal
[53] = tested on: U251 CNS
[54] = tested on: UACC-257 melanoma
[55] = tested on: UACC-62 melanoma
[56] = tested on: UO-31 renal

`O=C(Nc1nc(-c2ccc(Cl)cc2)cs1)c1cc(-c2ccc(Br)cc2)nc2ccc(Cl)cc12` gave a GI50 [1] of 3.53 µM, a TGI [1] of 67.1 µM and a GI50 [2] of 30.7 µM. The TGI [2] was over 100 µM, the GI50 [3] was 43.8 µM and the TGI [3] was over 100 µM. For the same molecule, the GI50 [4] was 5.18 µM, the TGI [4] was over 100 µM and the GI50 [5] was 2.47 µM. It also gave a TGI [5] of 7.89 µM, a GI50 [6] of 20.5 µM and a TGI [6] of over 100 µM. The GI50 [7] was 4.06 µM, the TGI [7] was over 100 µM and the GI50 [8] was 26.9 µM. The TGI [8] was over 100 µM, the GI50 [9] was 3.67 µM and the TGI [9] was over 100 µM. It also gave a GI50 [10] of 15.3 µM, a TGI [10] of over 100 µM and a GI50 [11] of 19.4 µM. It also gave a TGI [11] of over 100 µM, a GI50 [12] of 0.876 µM and a TGI [12] of 11.3 µM. It also gave a GI50 [13] of 3.12 µM, a TGI [13] of 26.6 µM and a GI50 [14] of 4.66 µM. It also gave a TGI [14] of over 100 µM, a GI50 [15] of 2.98 µM and a TGI [15] of 22.2 µM. For the same molecule, the GI50 [16] was 2.71 µM, the TGI [16] was 18.2 µM and the GI50 [17] was 3.89 µM. The TGI [17] was over 100 µM, the GI50 [18] was 2.7 µM and the TGI [18] was over 100 µM. For the same molecule, the GI50 [19] was 3.36 µM, the TGI [19] was over 100 µM and the GI50 [20] was 3.35 µM. It also gave a TGI [20] of 27.1 µM, a GI50 [21] of 2.77 µM and a TGI [21] of over 100 µM. For the same molecule, the GI50 [22] was 2.16 µM, the TGI [22] was 11.2 µM and the GI50 [23] was 5.59 µM. For the same molecule, the TGI [23] was 76.5 µM, the GI50 [24] was 2.62 µM and the TGI [24] was over 100 µM. It also gave a GI50 [25] of 3.02 µM, a TGI [25] of 15.3 µM and a GI50 [26] of 3.77 µM. For the same molecule, the TGI [26] was over 100 µM, the GI50 [27] was 2.98 µM and the TGI [27] was 15.4 µM. It also gave a GI50 [28] of 5.64 µM, a TGI [28] of over 100 µM and a GI50 [29] of 32.7 µM. For the same molecule, the TGI [29] was over 100 µM, the GI50 [30] was 7.87 µM and the TGI [30] was over 100 µM. It also gave a GI50 [31] of 3.97 µM, a TGI [31] of over 100 µM and a GI50 [32] of 2.86 µM. The TGI [32] was 9.19 µM, the GI50 [33] was 7.1 µM and the TGI [33] was over 100 µM. The GI50 [34] was 28.6 µM, the TGI [34] was over 100 µM and the GI50 [35] was 3.94 µM. It also gave a TGI [35] of 62.4 µM, a GI50 [36] of 4.16 µM and a TGI [36] of over 100 µM. It also gave a GI50 [37] of 3.73 µM, a TGI [37] of over 100 µM and a GI50 [38] of 19.1 µM. For the same molecule, the TGI [38] was 89.7 µM, the GI50 [39] was 3.86 µM and the TGI [39] was 36.4 µM. The GI50 [40] was 4.42 µM, the TGI [40] was 58.6 µM and the GI50 [41] was 2.78 µM. It also gave a TGI [41] of 10.4 µM, a GI50 [42] of 6.69 µM and a TGI [42] of over 100 µM. The GI50 [43] was 5.62 µM, the TGI [43] was over 100 µM and the GI50 [44] was 3.28 µM. It also gave a TGI [44] of 13.1 µM, a GI50 [45] of 34.2 µM and a TGI [45] of over 100 µM. For the same molecule, the GI50 [46] was 4.78 µM, the TGI [46] was 54.6 µM and the GI50 [47] was 5.22 µM. For the same molecule, the TGI [47] was over 100 µM, the GI50 [48] was 3.63 µM and the TGI [48] was over 100 µM. For the same molecule, the GI50 [49] was 3.72 µM, the TGI [49] was over 100 µM and the GI50 [50] was 4.35 µM. It also gave a TGI [50] of over 100 µM, a GI50 [51] of 16.1 µM and a TGI [51] of over 100 µM. The GI50 [52] was 29.2 µM, the TGI [52] was over 100 µM and the GI50 [53] was 4.39 µM. For the same molecule, the TGI [53] was 37.8 µM, the GI50 [54] was 24.1 µM and the TGI [54] was over 100 µM. It also gave a GI50 [55] of 3.49 µM, a TGI [55] of 22.6 µM and a GI50 [56] of 3.45 µM. The TGI [56] was over 100 µM.

— PubChem BioAssay (NCI)
